Measurements published in patent US20240279278A1, “NMU RECEPTOR 2 AGONISTS” (Boehringer Ingelheim International GmbH, priority 2023, published 2024).
In brackets after ≈: the same amount, converted by molar mass. Residues, ends and D or L forms follow the SMILES beside them.

Tests used:
human NMUR2 receptor [1] = biological target: T1, human NMUR2 receptor (Homo sapiens, UniProt Q9GZQ4); experiment: IP1 Gq HTRF assay, activation of human NMUR2 in buffer; type: cell-based; parameters: expressed in transfected cells; host or cells: CHO-K1; settings: CHO-K1 cells expressing human NMUR2, stimulation buffer with 0.1% BSA; read-out: EC50 (hNMUR2) buffer
T1 sequence (Q9GZQ4 whole entry): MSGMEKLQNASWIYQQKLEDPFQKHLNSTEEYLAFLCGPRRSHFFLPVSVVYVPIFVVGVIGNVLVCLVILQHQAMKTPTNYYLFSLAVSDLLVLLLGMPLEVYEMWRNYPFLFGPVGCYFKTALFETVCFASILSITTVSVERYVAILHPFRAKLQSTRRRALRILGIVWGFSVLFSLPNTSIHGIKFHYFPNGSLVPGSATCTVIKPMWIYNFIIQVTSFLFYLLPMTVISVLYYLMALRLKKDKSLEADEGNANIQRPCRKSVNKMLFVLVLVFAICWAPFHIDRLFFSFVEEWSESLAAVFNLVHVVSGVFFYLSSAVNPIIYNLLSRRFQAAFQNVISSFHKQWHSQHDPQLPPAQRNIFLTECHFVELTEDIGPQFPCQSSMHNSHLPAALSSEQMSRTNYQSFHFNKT
How it was run: (§1)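 IP-One HTRF competition (665/620 nm ratio) read after 1 h agonist exposure at 37 °C in pH 7.4 HEPES/HBSS stimulation buffer containing 50 mM LiCl, 0.1% BSA, 1% DMSO. Cells: CHO-K1 stably expressing human NMUR2 or NMUR1. EC50 by 4-parameter nonlinear regression of 8-point curves.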

human NMUR1 receptor = biological target: T2, human NMUR1 receptor (Homo sapiens, UniProt Q9HB89); experiment: IP1 Gq HTRF assay, activation of human NMUR1 in buffer; type: cell-based; settings: CHO-K1 cells expressing human NMUR1, stimulation buffer with 0.1% BSA; read-out: EC50 (hNMUR1) buffer
T2 construct: expressed in transfected cells; host or cells: CHO-K1
T2 sequence (Q9HB89 1-426): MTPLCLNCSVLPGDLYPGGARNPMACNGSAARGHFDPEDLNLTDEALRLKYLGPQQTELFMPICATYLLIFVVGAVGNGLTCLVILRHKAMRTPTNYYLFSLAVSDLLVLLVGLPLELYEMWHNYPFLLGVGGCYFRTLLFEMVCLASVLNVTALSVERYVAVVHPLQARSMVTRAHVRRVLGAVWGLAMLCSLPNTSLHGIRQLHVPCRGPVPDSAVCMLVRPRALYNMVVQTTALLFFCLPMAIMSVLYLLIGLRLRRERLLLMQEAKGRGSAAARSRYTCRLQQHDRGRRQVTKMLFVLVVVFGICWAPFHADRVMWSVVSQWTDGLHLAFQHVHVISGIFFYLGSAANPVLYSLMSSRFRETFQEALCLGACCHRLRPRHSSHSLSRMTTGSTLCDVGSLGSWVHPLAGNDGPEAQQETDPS
How it was run: as §1

human NMUR2 receptor [2] = biological target: T1, human NMUR2 receptor; experiment: Radioligand binding competition assay (RLB), human NMUR2 receptor binding (SPA, [125I]-Neuromedin U-25); parameters: host or cells: CHO-K1; settings: CHO-K1 hNMUR2 cell membranes, 4 hours at RT
physchem = type: physicochemical
How it was run: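 Peptide TFA salts were shaken at a nominal 10 mg/mL in 0.1 M phosphate buffer, pH 6 to 8, for 2 h at room temperature and then filtered. Reversed-phase HPLC peak area was compared with a 1 mg/mL control in buffer or DMSO to give solubility. The pH of each sample was recorded.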

SMILES | EC50 (human NMUR2 receptor [1]) | EC50 (human NMUR1 receptor) | Ki (human NMUR2 receptor [2]) | solubility at 2 h (physchem; pH 7.2) | solubility at 2 h (physchem; pH 6.9)
CCCC[C@H](NC(=O)[C@H](CC(C)C)N(C)C(=O)[C@H](Cc1ccccc1)NC(=O)[C@H](Cc1ccc(O)cc1)NC(=O)CN1CCN(CCNC(=O)CN(C)C(=O)CN(C)C(=O)CN(C)C(=O)CN(C)C(=O)CN(C)C(=O)CN(C)C(=O)CN(C)C(=O)CN(C)C(=O)CN(C)C(=O)CC[C@H](NC(=O)CC[C@H](NC(=O)CC[C@H](NC(=O)CCCCCCCCCCCCCCCCC(=O)O)C(=O)O)C(=O)O)C(=O)O)CC1)C(=O)N[C@@H](CCN)C(=O)N(C)[C@@H](C)C(=O)N[C@@H](CCCNC(=N)N)C(=O)NCC(N)=O [Compound 28, C18DA-gGlu3-Sar9-AEPipAc-Tyr-Phe-NMeLeu-Nle-Dbu-NMeAla-Arg-Gly-NH2] (HELM PEPTIDE1{[O=C(O)CCCCCCCCCCCCCCCCC(=O)[*:2]].[gGlu].[gGlu].[gGlu].[Sar].[Sar].[Sar].[Sar].[Sar].[Sar].[Sar].[Sar].[Sar].[O=C(CN1CCN(CCN[*:1])CC1)[*:2]].Y.F.[meL].[Nle].[Dab].[meA].R.G.[am]}$$$$V2.0) | 1.4 nM | > 1000 nM | 56.2 nM | 8500 µg/mL (≈ 3.46 mM) | 
CCCC[C@H](NC(=O)[C@H](CC(C)C)N(C)C(=O)[C@H](Cc1ccccc1)NC(=O)[C@H](Cc1ccc(O)cc1)NC(=O)CN1CCN(CCNC(=O)CN(C)C(=O)CN(C)C(=O)CN(C)C(=O)CN(C)C(=O)CN(C)C(=O)CN(C)C(=O)CN(C)C(=O)CN(C)C(=O)CN(C)C(=O)CN(C)C(=O)CN(C)C(=O)CN(C)C(=O)CC[C@H](NC(=O)CC[C@H](NC(=O)CC[C@H](NC(=O)CCCCCCCCCCCCCCCCC(=O)O)C(=O)O)C(=O)O)C(=O)O)CC1)C(=O)N[C@@H](CCN)C(=O)N(C)[C@@H](C)C(=O)N[C@@H](CCCNC(=N)N)C(=O)NCC(N)=O [Compound 38, C18DA-gGlu3-Sar12-AEPipAc-Tyr-Phe-NMeLeu-Nle-Dbu-NMeAla-Arg-Gly-NH2] | 1.9 nM | > 1000 nM | 33.8 nM | 8800 µg/mL (≈ 3.29 mM) | 
CCCC[C@H](NC(=O)[C@H](CC(C)C)N(C)C(=O)[C@H](Cc1ccccc1)NC(=O)[C@H](Cc1ccc(O)cc1)NC(=O)CN1CCN(CCNC(=O)CN(C)C(=O)CN(C)C(=O)CN(C)C(=O)CN(C)C(=O)CN(C)C(=O)CN(C)C(=O)CN(C)C(=O)CN(C)C(=O)CN(C)C(=O)CN(C)C(=O)CN(C)C(=O)CN(C)C(=O)CN(C)C(=O)CN(C)C(=O)CN(C)C(=O)CC[C@H](NC(=O)CC[C@H](NC(=O)CC[C@H](NC(=O)CCCCCCCCCCCCCCCCCCC(=O)O)C(=O)O)C(=O)O)C(=O)O)CC1)C(=O)N[C@@H](CCN)C(=O)N1CCC[C@H]1C(=O)N[C@@H](CCCNC(=N)N)C(=O)NCC(N)=O [Compound 42, C20DA-gGlu3-Sar15-AEPipAc-Tyr-Phe-NMeLeu-Nle-Dbu-Pro-Arg-Gly-NH2] (HELM PEPTIDE1{[O=C(O)CCCCCCCCCCCCCCCCCCC(=O)[*:2]].[gGlu].[gGlu].[gGlu].[Sar].[Sar].[Sar].[Sar].[Sar].[Sar].[Sar].[Sar].[Sar].[Sar].[Sar].[Sar].[Sar].[Sar].[Sar].[O=C(CN1CCN(CCN[*:1])CC1)[*:2]].Y.F.[meL].[Nle].[Dab].P.R.G.[am]}$$$$V2.0) | 3.2 nM | 1500 nM | 23.7 nM |  | 5300 µg/mL (≈ 1.81 mM)
